Measurements from PubChem BioAssay AID2060326 (Molecular Pharmacology Branch, DTP, NCI, 2025).
Values joined by “and” are separate entries in the source; they are usually repeats but may differ in a detail not shown here. Equal entries are not always repeated.

System: MDA-MB-468 multi-cell spheroids, viability
Experiment: Anticancer human tumor MDA-MB-468 cell line growth inhibition [IpAb];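 note: spheroids exposed to agents for seven days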;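 for viability, T/C: 100% = DMSO vehicle control viability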
Conditions: for viability, T/C: stronger effect = lower value
Source text: Combinatorial screen of targeted agents with ipatasertib and abemaciclib in multi-cell type tumor spheroids
A high-throughput screen of multi-cell type tumor spheroids was designed to identify active combinations of targeted small molecules and ipatasertib or abemaciclib. Complex spheroids include a stromal component modeled by human endothelial cells (HUVEC) and fibroblasts modeled by human mesenchymal stem cells (MSCs). The concentration ranges selected for each drug and investigational agent were based upon clinically achievable concentrations if the clinical Cmax of the agent was known.
Compounds. The drugs and investigational agents: ipatasertib (NSC767898), abemaciclib(NSC768073), selumetinib (NSC741078), trametinib (758246), adavosertib (NSC754352), everolimus (NSC733504), sapanisertib (NSC764658), vemurafenib (NSC761431), venetoclax (NSC766270), copanlisib (NSC809693), apelisib (NSC765974), palbociblib (NSC758247), vemurafenib (NSC761431), dabrafenib (NSC764134), ravoxertinib (NSC781343), BMS-387032 (NSC767048), sotorasib (NSC818433), talazoparib (NSC767125) and afursertib (NSC778305), were obtained from the National Cancer Institute (NCI) Developmental Therapeutics Program Chemical Repository. The FDA-approved anticancer drug set is available from the NCI Developmental Therapeutics Program. […] The stock solutions were prepared in dimethyl sulfoxide (DMSO, Sigma-Aldrich, St. Louis, MO, cat. D2650) at 800-fold the tested concentration and stored at -70 degrees C prior to their use. All drugs and investigational agents were tested over a range starting from a high concentration at or near the clinical Cmax and decreasing in half-log increments. If the clinical Cmax for an agent had not been determined, the highest concentration tested was 10 microM.
NCI60 Cell Culture. NCI60 cell lines were obtained from the NCI Developmental Therapeutics Program Tumor Repository. For each lot of cells, the Repository performed Applied Biosystems AmpFLSTR Identifiler testing with PCR amplification to confirm consistency with the published Identifier STR profile for each cell line. Cells were kept in continuous culture for no more than 20 passages. The optimal seeding densities for each of the cell lines at each time point assessed were determined prior to performing the concentration response studies. Briefly, the NCI60 human tumor lines were grown as monolayers in RPMI 1640 medium supplemented with 10% FBS and 2 mmol/L L-glutamine.
An additional 9 lines were from the NCI60 cell line panel including MDA-MB-231 breast carcinoma, MDA-MB-468 breast carcinoma, MCF7 breast carcinoma, Hs578T breast carcinoma, MALME-3M melanoma, SK-MEL-2 melanoma, SK-OV-3 ovarian carcinoma, DU-145 prostate carcinoma, PC-3 prostate carcinoma, all cell lines along with major genetic alterations are listed on Table 2. Pooled donor human umbilical vein endothelial cells (HUVEC, Lonza, cat. CC-2519) and human mesenchymal stem cells (hMSC, Lonza, cat. PT-2501) were purchased from Lonza (Walkersville, MD).
PDMR cell lines were grown in complete medium (DC medium): Dulbecco's modified Eagle's medium (DMEM)/F12 supplemented with 5% fetal bovine serum (FBS), 2 mM L-glutamine, 100 U/mL penicillin and 100 µg/ml streptomycin, 0.4 µg/ml hydrocortisone, 10 ng/ml epidermal growth factor (EGF) recombinant human protein, 24 µg/mL adenine, and 0.1 mg/mL primocin. During culture from frozen stock vials, PDMR cells were cultured in the same medium containing 10 µM Y-27632 (see Table 3). The PDCs were cultured in complete DMEM/F12 media without 10 microM Y-27632 dihydrochloride for at least two passages prior to the screen. The pooled donor HUVEC and hMSC were cultured in endothelial cell growth medium 2 (PromoCell, Heidelberg, Germany, cat. C-22011) and mesenchymal stem cell growth medium 2 (PromoCell, cat. C-28009), respectively. For all experiments, HUVEC and hMSC were used at passages </=5.
[…]

SMILES: Cc1nc(NC(=O)N2CCCC2C(N)=O)sc1-c1ccnc(C(C)(C)C(F)(F)F)c1 (centres undefined)
- viability, T/C (compound 0.0316 µM): 86.9% and 91.9%
- viability, T/C (compound 0.1 µM): 93% and 82.5%
- viability, T/C (compound 0.316 µM): 79.2% and 88.1%
- viability, T/C (compound 1 µM): 64.3% and 95%
- viability, T/C (compound 3.16 µM): 84% and 94.3%
- viability, T/C (compound 10 µM): 25.2% and 31.6%
- IC50 (curve of compound): 6.02 µM and 6.99 µM

SMILES: C=CC(=O)N1CCN(c2nc(=O)n(-c3c(C)ccnc3C(C)C)c3nc(-c4c(O)cccc4F)c(F)cc23)C(C)C1 (centres undefined) + CC(C)NCC(C(=O)N1CCN(c2ncnc3c2C(C)CC3O)CC1)c1ccc(Cl)cc1
- IC50 (curve of first compound, second compound 0.1 µM): 7.04 µM
- IC50 (curve of first compound, second compound 0.316 µM): 4.93 µM
- IC50 (curve of first compound, second compound 1 µM): 4.17 µM
- IC50 (curve of first compound, second compound 3.16 µM): < 0.0316 µM
- IC50 (curve of first compound, second compound 10 µM): < 0.0316 µM
- viability, T/C (second compound 0.1 µM, first compound 0.0316 µM): 115%
- viability, T/C (second compound 0.1 µM, first compound 0.1 µM): 123%
- viability, T/C (second compound 0.1 µM, first compound 0.316 µM): 118%
- viability, T/C (second compound 0.1 µM, first compound 1 µM): 105%
- viability, T/C (second compound 0.1 µM, first compound 3.16 µM): 78.2%
- viability, T/C (second compound 0.1 µM, first compound 10 µM): 37.8%
- viability, T/C (second compound 0.316 µM, first compound 0.0316 µM): 94.4%
- viability, T/C (second compound 0.316 µM, first compound 0.1 µM): 69.8%
- viability, T/C (second compound 0.316 µM, first compound 0.316 µM): 68.4%
- viability, T/C (second compound 0.316 µM, first compound 1 µM): 71.6%
- viability, T/C (second compound 0.316 µM, first compound 3.16 µM): 67.3%
- viability, T/C (second compound 0.316 µM, first compound 10 µM): 27.4%
- viability, T/C (second compound 1 µM, first compound 0.0316 µM): 64.5%
- viability, T/C (second compound 1 µM, first compound 0.1 µM): 55.9%
- viability, T/C (second compound 1 µM, first compound 0.316 µM): 62.4%
- viability, T/C (second compound 1 µM, first compound 1 µM): 57.6%
- viability, T/C (second compound 1 µM, first compound 3.16 µM): 59.8%
- viability, T/C (second compound 1 µM, first compound 10 µM): 19.2%
- viability, T/C (second compound 3.16 µM, first compound 0.0316 µM): 42.3%
- viability, T/C (second compound 3.16 µM, first compound 0.1 µM): 41.2%
- viability, T/C (second compound 3.16 µM, first compound 0.316 µM): 44.5%
- viability, T/C (second compound 3.16 µM, first compound 1 µM): 39.6%
- viability, T/C (second compound 3.16 µM, first compound 3.16 µM): 29.6%
- viability, T/C (second compound 3.16 µM, first compound 10 µM): 8.37%
- viability, T/C (second compound 10 µM, first compound 0.0316 µM): 19.5%
- viability, T/C (second compound 10 µM, first compound 0.1 µM): 22.1%
- viability, T/C (second compound 10 µM, first compound 0.316 µM): 20.5%
- viability, T/C (second compound 10 µM, first compound 1 µM): 19.3%
- viability, T/C (second compound 10 µM, first compound 3.16 µM): 13.8%
- viability, T/C (second compound 10 µM, first compound 10 µM): 5.04%

SMILES: CC(C)n1nc(-c2ccc3oc(N)nc3c2)c2c(N)ncnc21
- viability, T/C (compound 0.000316 µM): 99% and 104%
- viability, T/C (compound 0.001 µM): 84.2% and 89.2%
- viability, T/C (compound 0.00316 µM): 74% and 80.1%
- viability, T/C (compound 0.01 µM): 53.6% and 57.9%
- viability, T/C (compound 0.0316 µM): 23.8% and 23.2%
- viability, T/C (compound 0.1 µM): 9.32% and 10.4%
- IC50 (curve of compound): 0.0104 µM and 0.012 µM
